# Where “and” joins values, the source holds several entries; their conditions need not be identical. Identical values can stand only once. Calls of active or inactive are those of the source.
# What was measured:
# [1] = target: 5-hydroxytryptamine receptor 1A (Homo sapiens, UniProt P08908); assay type: functional
# Estrogen receptor beta [2] = target: T1, Estrogen receptor beta (Homo sapiens, UniProt Q92731); assay: blockers of SRC-3 recruitment to ERβ – biochemical, ELISA, streptavidin-HRP readout, orthogonal assay, confirmation (AID 1060)
# T1 sequence (Q92731 whole entry, the tested form may be a part): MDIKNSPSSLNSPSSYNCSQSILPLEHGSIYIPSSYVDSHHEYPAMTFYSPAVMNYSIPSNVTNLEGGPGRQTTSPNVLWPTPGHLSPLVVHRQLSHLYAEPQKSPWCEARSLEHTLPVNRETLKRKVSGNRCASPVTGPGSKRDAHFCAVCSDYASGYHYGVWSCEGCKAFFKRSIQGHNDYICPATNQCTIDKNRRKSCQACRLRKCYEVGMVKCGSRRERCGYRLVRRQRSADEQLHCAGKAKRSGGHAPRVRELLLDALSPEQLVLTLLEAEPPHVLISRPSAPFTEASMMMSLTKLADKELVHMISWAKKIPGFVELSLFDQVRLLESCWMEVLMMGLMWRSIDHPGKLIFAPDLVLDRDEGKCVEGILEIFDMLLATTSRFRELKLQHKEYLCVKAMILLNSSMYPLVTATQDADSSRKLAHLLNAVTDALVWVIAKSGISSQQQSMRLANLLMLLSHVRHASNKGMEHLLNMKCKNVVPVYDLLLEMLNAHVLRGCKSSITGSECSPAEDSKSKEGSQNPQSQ
# [3] = target: T2, Carboxy-terminal domain RNA polymerase II polypeptide A small phosphatase 1 (Homo sapiens, UniProt Q9GZU7); assay: CTDSP1 inhibitors, concentration-response, biochemical, absorbance readout, ultra-high-throughput screen actives (AID 540297); assay type: functional
# T2 sequence (Q9GZU7 whole entry): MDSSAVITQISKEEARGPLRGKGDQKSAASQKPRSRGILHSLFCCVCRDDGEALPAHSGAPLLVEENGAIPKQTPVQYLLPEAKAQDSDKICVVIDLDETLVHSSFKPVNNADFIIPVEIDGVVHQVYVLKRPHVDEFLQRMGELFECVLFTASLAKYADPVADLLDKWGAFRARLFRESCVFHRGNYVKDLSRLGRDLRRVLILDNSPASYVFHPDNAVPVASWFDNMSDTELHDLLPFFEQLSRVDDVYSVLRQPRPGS
# [4] = HIV-1 Vif–A3G interaction blockers – biochemical, TR-FRET, GST-Vif 1-94, biotin-A3G peptide, dose response retest, primary screen (AID 1117319); assay type: functional;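 also: TR-FRET signal of purified GST-Vif binding a biotinylated A3G peptide; inhibitors lower the FRET signal by blocking Vif and A3G binding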
# Estrogen receptor beta [5] = target: T1, Estrogen receptor beta
# NADPH oxidase 1 = NADPH oxidase 1 (Homo sapiens, UniProt Q9Y5S8); assay type: functional, cell-based;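 also: Cell-based assay with luminescence read-out, IC50 derived from inhibitor dose-response curves; intracellular ROS from endogenous NOX1 in intact HT29 colon cancer cells; potency of inhibitors that lower the ROS luminescence signal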
# Sequence of NADPH oxidase 1 (Q9Y5S8 whole entry): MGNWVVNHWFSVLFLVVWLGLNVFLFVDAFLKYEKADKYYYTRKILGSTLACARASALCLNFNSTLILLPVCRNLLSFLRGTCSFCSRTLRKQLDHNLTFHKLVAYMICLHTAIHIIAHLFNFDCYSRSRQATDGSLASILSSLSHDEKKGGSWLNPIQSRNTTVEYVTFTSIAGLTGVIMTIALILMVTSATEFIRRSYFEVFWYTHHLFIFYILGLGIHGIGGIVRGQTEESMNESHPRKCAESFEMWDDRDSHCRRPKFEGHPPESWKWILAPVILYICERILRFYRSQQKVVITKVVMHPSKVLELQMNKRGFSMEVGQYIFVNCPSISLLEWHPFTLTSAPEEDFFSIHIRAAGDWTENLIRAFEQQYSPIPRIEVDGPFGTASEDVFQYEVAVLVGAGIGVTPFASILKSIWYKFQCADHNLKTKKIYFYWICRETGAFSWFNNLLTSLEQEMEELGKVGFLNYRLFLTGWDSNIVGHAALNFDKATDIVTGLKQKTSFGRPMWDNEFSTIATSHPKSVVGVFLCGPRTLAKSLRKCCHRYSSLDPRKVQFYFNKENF
# [6] = target: T3, High affinity choline transporter 1 (Homo sapiens, UniProt Q9GZV3); assay: human choline transporter blockers, potency – cell-based, 5-point CRC, membrane potential dye, dose response (AID 504840); assay type: functional
# T3 sequence (Q9GZV3 whole entry): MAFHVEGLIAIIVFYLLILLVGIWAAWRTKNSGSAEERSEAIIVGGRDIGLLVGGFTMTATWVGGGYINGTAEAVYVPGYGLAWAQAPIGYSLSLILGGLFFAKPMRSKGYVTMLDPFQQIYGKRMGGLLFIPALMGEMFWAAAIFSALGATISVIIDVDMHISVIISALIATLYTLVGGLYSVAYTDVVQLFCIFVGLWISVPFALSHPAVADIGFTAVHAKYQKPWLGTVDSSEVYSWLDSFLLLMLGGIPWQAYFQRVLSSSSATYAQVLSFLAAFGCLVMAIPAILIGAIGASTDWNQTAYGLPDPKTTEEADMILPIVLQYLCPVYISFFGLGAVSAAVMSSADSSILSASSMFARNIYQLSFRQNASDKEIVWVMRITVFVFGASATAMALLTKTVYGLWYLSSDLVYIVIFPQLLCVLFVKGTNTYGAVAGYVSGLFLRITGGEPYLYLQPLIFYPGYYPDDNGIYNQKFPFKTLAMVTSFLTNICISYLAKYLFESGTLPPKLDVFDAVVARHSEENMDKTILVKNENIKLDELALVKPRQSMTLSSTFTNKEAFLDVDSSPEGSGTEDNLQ
# [7] = target: Aryl hydrocarbon receptor (Homo sapiens, UniProt P35869); assay: Luminescence-based cell-based high throughput dose response assay for activators of the Aryl Hydrocarbon Receptor (AHR). [Related pubchem assays: 2796 (Primary screen (AHR activators in singlicate)), 2845 (Confirmation screen (AHR activators in triplicate)), 434939 (Counterscreen (PXR activators in triplicate)), 2804 (Summary (AHR activators))]; assay type: ADME
# Sequence of Aryl hydrocarbon receptor (P35869 whole entry): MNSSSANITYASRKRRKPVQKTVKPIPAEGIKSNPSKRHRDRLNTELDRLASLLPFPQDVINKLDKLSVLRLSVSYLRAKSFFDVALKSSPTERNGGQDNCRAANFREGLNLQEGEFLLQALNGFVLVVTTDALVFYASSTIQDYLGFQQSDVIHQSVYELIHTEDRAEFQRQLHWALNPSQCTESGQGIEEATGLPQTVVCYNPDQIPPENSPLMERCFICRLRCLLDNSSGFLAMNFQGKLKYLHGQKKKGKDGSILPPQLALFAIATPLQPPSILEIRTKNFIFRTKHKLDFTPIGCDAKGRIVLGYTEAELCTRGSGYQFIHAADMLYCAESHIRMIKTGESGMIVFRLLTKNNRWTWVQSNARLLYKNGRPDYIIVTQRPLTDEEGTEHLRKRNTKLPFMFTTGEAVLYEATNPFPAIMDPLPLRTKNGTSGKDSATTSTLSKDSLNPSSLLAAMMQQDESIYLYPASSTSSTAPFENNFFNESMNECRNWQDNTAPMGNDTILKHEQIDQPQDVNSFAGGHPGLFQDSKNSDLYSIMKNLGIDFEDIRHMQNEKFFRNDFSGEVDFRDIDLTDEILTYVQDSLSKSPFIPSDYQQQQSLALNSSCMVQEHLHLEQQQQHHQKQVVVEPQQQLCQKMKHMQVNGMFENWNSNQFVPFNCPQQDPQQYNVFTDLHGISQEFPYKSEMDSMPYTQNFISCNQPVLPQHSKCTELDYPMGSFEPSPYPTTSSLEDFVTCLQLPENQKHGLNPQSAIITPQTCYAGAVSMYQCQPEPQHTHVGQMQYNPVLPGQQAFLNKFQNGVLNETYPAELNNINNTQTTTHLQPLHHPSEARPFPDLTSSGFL
# [8] = target: Glyceraldehyde-3-phosphate dehydrogenase (Homo sapiens, UniProt P04406)
# Sequence of Glyceraldehyde-3-phosphate dehydrogenase (P04406 whole entry): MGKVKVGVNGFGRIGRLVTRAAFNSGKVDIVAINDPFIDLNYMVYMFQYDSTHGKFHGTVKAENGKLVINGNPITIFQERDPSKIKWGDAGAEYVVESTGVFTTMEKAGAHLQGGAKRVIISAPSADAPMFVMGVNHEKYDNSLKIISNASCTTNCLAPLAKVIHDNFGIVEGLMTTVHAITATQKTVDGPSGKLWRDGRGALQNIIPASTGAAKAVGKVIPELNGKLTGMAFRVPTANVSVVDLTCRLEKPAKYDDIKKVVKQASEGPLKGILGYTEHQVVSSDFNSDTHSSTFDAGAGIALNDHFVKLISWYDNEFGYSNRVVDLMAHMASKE
# Protein RecA = target: T4, Protein RecA (Mycobacterium tuberculosis, UniProt P9WHJ3); assay: Fluorescence Cell-Free Homogeneous Dose Retest to Identify Inhibitors of RecA-Intein Splicing Activity. [Related pubchem assays (depositor defined):AID2097, AID2223, AID489010, AID492950]; assay type: functional
# T4 sequence (P9WHJ3 whole entry): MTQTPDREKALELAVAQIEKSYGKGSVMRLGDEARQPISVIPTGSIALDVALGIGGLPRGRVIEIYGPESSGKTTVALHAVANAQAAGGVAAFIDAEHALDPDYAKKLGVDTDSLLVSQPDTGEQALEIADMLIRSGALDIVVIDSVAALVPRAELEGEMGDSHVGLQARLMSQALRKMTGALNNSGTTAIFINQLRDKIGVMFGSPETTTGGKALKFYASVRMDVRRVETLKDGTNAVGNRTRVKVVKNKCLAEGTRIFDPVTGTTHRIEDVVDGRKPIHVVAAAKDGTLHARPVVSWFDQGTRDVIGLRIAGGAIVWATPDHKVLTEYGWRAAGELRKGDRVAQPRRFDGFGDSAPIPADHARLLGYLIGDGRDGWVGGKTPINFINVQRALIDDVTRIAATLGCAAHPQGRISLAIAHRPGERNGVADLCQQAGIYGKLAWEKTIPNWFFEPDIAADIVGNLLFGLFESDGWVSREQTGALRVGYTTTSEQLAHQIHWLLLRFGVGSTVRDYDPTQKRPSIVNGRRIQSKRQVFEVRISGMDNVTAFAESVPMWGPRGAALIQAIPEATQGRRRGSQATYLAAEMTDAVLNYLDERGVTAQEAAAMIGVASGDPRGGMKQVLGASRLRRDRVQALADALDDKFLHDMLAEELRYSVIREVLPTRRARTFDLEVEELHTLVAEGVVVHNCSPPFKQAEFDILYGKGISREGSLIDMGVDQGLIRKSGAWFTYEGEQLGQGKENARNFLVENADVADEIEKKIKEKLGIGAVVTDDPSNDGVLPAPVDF
# Genome polyprotein = Genome polyprotein (dengue virus type 2, UniProt P29990); assay: flavivirus cap methylation enzyme inhibition – biochemical, confirmation dose response, primary screen (AID 588689); assay type: functional
# [9] = target: T5, Replicative DNA helicase DnaB (Mycobacterium tuberculosis, UniProt P9WMR3); assay: DnaB intein splicing inhibitors, dose response, biochemical, cell-free fluorescence (AID 449749); assay type: functional
# T5 sequence (P9WMR3 whole entry): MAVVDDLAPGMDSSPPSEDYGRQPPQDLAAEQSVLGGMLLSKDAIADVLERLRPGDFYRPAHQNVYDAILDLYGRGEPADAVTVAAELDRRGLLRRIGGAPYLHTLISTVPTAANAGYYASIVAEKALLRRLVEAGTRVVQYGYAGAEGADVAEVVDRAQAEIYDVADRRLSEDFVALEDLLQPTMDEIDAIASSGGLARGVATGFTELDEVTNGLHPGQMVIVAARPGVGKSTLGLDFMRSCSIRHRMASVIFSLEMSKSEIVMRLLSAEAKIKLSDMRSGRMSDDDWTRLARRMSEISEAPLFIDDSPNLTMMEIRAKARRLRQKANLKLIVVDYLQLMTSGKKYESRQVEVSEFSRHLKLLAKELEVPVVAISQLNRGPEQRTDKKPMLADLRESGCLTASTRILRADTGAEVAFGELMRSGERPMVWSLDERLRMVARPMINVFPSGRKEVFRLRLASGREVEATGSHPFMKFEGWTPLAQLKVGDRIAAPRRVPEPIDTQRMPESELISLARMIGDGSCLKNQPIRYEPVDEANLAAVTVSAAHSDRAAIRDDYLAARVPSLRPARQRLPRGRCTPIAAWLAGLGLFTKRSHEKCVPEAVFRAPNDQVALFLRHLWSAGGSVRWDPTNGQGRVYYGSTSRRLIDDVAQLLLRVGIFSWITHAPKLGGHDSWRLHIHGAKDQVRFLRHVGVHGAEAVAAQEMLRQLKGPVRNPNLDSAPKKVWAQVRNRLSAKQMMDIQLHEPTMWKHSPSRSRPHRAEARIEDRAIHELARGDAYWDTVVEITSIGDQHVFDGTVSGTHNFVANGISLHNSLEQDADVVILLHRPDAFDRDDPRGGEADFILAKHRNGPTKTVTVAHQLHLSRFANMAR
# Bcl-2-related protein A1 [10] = target: T6, Bcl-2-related protein A1 (Mus musculus, UniProt Q07440); assay: small-molecule antagonists of Bfl-1/BH3 interaction – biochemical, TR-FRET, mouse Bfl-1, confirmation (AID 621);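 also: TR-FRET binding of GST-Bfl-1 to FITC-labelled Bid peptide via terbium antibody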
# T6 sequence (Q07440 whole entry): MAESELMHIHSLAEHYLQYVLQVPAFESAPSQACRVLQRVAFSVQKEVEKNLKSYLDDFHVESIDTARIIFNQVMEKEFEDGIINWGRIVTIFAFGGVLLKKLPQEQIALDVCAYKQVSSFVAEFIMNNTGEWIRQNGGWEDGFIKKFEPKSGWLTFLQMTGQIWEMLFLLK
# Bcl-2-related protein A1 [11] = target: T6, Bcl-2-related protein A1; assay: Bfl-1 binding inhibitors, SAR follow-up, biochemical, fluorescence polarization (AID 1070)
# Bcl-2-related protein A1 [12] = target: T6, Bcl-2-related protein A1; assay: displacement of Bid BH3 peptide from Bfl-1 – biochemical, fluorescence polarization, FITC-Bid, mouse, primary screen (AID 432)
# Cytochrome P450 2C19 = Cytochrome P450 2C19 (Homo sapiens, UniProt P33261); assay: qHTS Assay for Inhibitors and Substrates of Cytochrome P450 2C19. [Related pubchem assays: 410 ]; assay type: ADME; details: read-out: Potency
# Sequence of Cytochrome P450 2C19 (P33261 whole entry): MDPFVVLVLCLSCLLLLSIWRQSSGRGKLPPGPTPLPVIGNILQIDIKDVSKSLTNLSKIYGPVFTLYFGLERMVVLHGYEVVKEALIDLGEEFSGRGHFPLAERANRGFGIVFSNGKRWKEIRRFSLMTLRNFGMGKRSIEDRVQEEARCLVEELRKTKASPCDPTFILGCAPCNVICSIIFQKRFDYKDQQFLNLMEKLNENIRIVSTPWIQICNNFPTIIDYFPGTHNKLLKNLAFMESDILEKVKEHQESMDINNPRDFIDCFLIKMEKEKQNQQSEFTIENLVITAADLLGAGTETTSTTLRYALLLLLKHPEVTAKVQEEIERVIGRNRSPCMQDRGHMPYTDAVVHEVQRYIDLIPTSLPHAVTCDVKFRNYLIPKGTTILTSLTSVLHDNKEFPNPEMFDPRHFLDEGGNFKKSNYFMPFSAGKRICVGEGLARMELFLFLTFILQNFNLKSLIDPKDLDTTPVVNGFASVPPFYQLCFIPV
# Cytochrome P450 3A4 = Cytochrome P450 3A4 (Homo sapiens, UniProt P08684); details: Potency;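 also: confirmatory qHTS run detecting inhibitors and substrates of CYP3A4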
# Bcl-2-like protein 10 = Bcl-2-like protein 10 (Homo sapiens, UniProt Q9HD36); assay: Bcl-B/TR3 peptide binding disruption – biochemical, fluorescence polarization, FITC-TR3 peptide, selectivity assay for Bfl-1 inhibitor project, primary screen (AID 748);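 also: fluorescence polarization from a fluorescein-labelled TR3 peptide binding purified Bcl-B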
# Sequence of Bcl-2-like protein 10 (Q9HD36 whole entry): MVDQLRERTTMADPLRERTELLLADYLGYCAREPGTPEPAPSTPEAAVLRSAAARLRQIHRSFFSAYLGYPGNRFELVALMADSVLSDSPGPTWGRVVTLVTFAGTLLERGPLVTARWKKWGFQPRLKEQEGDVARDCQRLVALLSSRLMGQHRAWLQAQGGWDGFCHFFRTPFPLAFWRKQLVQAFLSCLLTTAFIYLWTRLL
# [13] = viability loss in THP-1 monocytes – THP-1 cells, cytotoxicity control for Vif-APOBEC3G degradation inhibitor project, dose response (AID 1117359); assay type: functional; details: THP-1
# [14] = target: Induced myeloid leukemia cell differentiation protein Mcl-1 (Homo sapiens, UniProt Q07820); assay type: functional
# Sequence of Induced myeloid leukemia cell differentiation protein Mcl-1 (Q07820 whole entry): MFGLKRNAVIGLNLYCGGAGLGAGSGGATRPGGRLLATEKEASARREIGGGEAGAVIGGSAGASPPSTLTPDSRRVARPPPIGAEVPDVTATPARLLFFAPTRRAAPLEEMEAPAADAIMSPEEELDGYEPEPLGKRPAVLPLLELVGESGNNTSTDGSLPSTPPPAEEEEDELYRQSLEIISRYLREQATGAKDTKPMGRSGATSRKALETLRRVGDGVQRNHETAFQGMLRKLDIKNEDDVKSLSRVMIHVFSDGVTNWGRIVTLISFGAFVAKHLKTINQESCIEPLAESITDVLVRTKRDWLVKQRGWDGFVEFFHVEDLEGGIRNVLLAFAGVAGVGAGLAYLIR
# Ephrin type-A receptor 4 = Ephrin type-A receptor 4 (Mus musculus, UniProt Q03137); assay: EphA4 ligand-binding antagonists – biochemical, colorimetric, mouse EphA4, primary screen (AID 689); assay type: functional
# Sequence of Ephrin type-A receptor 4 (Q03137 whole entry): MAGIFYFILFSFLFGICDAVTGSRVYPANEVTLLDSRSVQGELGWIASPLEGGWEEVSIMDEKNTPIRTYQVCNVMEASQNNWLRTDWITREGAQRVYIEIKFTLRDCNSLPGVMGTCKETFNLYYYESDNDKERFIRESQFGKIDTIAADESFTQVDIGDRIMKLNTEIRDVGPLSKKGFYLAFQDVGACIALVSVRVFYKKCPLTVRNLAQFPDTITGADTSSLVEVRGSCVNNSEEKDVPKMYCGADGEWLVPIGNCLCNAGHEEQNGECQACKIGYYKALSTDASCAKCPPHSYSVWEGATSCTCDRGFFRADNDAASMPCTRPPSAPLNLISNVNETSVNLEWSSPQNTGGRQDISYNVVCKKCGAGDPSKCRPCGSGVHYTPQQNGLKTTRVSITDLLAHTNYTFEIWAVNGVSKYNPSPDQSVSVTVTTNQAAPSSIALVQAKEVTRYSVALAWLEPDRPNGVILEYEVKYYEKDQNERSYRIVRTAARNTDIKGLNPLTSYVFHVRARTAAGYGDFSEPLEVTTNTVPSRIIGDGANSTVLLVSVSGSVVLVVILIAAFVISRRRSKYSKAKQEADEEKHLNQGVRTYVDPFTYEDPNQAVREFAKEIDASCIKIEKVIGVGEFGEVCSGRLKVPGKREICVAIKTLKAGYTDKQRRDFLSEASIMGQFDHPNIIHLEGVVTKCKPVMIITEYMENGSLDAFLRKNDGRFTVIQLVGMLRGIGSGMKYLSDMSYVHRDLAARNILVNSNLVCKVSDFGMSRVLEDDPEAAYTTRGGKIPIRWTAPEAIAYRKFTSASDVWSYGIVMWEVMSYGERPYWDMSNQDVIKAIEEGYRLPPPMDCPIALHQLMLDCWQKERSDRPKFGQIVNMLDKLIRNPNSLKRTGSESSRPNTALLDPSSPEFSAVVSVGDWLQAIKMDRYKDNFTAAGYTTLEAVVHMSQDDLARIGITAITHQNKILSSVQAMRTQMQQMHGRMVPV
# [15] = target: DNA (cytosine-5)-methyltransferase 1 (Homo sapiens, UniProt P26358); assay: inhibition of DNA methylation by DNMT1 – biochemical, fluorescent molecular beacon, confirmation (AID 602386); assay type: functional
# Vero = assay: Vero cell viability after compound exposure – synthesized analogs, set II, cytotoxicity control for West Nile virus antiviral project, SAR follow-up (AID 2402); assay type: functional; details: Chlorocebus sabaeus
# [16] = target: Sphingosine 1-phosphate receptor 2 (Homo sapiens, UniProt O95136); assay: Dose Response Cell Based Assay for Antagonists of the S1P2 Receptor. [Related pubchem assays: 856, 736 ]; assay type: functional
# Sequence of Sphingosine 1-phosphate receptor 2 (O95136 whole entry): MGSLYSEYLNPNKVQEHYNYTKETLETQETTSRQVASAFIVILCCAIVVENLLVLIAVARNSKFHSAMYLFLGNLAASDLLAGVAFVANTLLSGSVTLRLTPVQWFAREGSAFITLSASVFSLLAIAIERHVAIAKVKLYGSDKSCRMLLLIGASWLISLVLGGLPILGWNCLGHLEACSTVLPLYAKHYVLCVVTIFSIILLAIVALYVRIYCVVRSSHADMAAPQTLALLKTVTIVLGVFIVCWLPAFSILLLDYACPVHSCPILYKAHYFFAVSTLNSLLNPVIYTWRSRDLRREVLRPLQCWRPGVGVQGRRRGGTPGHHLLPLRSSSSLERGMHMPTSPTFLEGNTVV
# [17] = M. tuberculosis H37Rv growth inhibitors, H37Rv strain (AID 1626); assay type: functional
# [18] = NIH3T3 cell viability loss – ATP luminescence, mouse fibroblasts, counter-screen, dose response (AID 2010); assay type: functional, cell-based;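 also: cells exposed to compound for about 90 hours before reading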
# [19] = Trypanosoma cruzi growth suppression in host cells – NIH3T3 host cells, beta-gal luminescence, confirmation (AID 2044); assay type: functional, cell-based;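 also: intracellular parasites grown in NIH/3T3 mouse fibroblasts as host cells; luminescent beta-galactosidase reporter signal from transgenic T. cruzi replicating inside host cells; inhibitors lower the luminescence signal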
# [20] = target: Diphosphomevalonate decarboxylase (Streptococcus pneumoniae serotype 2 (strain D39 / NCTC 7466), UniProt Q9FD53); assay: diphosphomevalonate decarboxylase inhibitor confirmation – biochemical, cuvette format, coupled NADH fluorescence (AID 1028); assay type: functional
# Sequence of Diphosphomevalonate decarboxylase (Q9FD53 whole entry): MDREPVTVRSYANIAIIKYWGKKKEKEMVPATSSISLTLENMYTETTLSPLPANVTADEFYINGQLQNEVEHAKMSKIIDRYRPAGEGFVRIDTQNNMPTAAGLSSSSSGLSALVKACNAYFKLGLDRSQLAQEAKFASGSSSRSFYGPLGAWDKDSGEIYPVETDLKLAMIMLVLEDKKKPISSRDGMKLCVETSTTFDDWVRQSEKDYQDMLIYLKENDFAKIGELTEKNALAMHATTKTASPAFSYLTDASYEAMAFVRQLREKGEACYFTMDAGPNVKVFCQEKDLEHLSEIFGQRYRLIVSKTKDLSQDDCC
smiles,measurement,setting,value
CCN1CC=C(c2c[nH]c3ccccc23)CC1,EC50,[1],> 50 µM (not active)
CCCCN(CCCC)S(=O)(=O)c1ccc(NC(=O)Cc2cccs2)cc1,IC50,Estrogen receptor beta [2],1.05 µM (not active)
same,IC50,[3],7.14 µM (active)
same,IC50,[4],> 100 µM (active)
same,IC50,Estrogen receptor beta [5],18.8 µM (active)
O=[N+]([O-])c1ccccc1-c1nc(-c2ccccc2)c(-c2ccccc2)[nH]1,IC50,NADPH oxidase 1,> 17 µM (not active)
Cc1ccc[n+](CC(=O)c2ccc(Br)cc2)c1C,IC50,[6],13.8 µM (active)
same,EC50,[7],6.77 µM (active)
CN1CCN(C2=C(Cl)C(=O)N(c3ccc(Cl)c(Cl)c3)C2=O)CC1,IC50,[8],> 100 µM (not active)
same,EC50,Protein RecA,2.22 µM (active)
same,IC50,Genome polyprotein,16.9 µM (active)
same,AC50,[9],3.75 µM (active)
same,IC50,Bcl-2-related protein A1 [10],580 nM (active) and 500 nM (active)
same,IC50,Bcl-2-related protein A1 [11],0.362 µM (active)
same,IC50,Bcl-2-related protein A1 [12],0.65 µM (active)
O=c1cc(-c2ccccc2O)oc2c1ccc1ccccc12,AC50,Cytochrome P450 2C19,0.251 µM (inconclusive)
same,AC50,Cytochrome P450 3A4,15.8 µM (inconclusive)
O=C1CCCC2=C1C(c1ccco1)Nc1ccc3ccccc3c12 (centres undefined),IC50,Bcl-2-like protein 10,7.53 µM (active)
same,CC50,[13],> 40 µM (active)
same,IC50,[14],3.2 µM (active)
same,IC50,Ephrin type-A receptor 4,11.8 µM (active)
same,IC50,[15],6.62 µM (active)
O=C(CSc1nc2ccc(F)cc2c(=O)n1-c1ccccc1)Nc1ccc2c(c1)CCC2,CC50,Vero,> 200 µM (active)
CN(C)/C=N/C(=O)c1sc2cc(C(F)(F)F)cnc2c1-c1ccccc1,IC50,[16],> 30 µM (not active)
O=C(O)/C=C/C(=O)Nc1ccc(-n2nccc2C(F)(F)F)cc1,IC50,[17],> 100 µM (active)
O=C(CCC1CCCN(Cc2ccc3c(c2)OCCO3)C1)NCc1ccc(F)c(F)c1 (centres undefined),EC50,cells,0.033 µM (active)
same,EC50,[18],> 60 µM (not active)
same,EC50,[19],< 0.1 µM (active)
O=C(c1cccc(-n2sc3ccccc3c2=O)c1)N1CCOCC1,IC50,[20],23.1 µM (active)

# Source: ChEMBL document CHEMBL1201862, “PubChem BioAssay data set” (2004)
